Reference: patent US20260035384A1, “COMPOUND CONTAINING CYCLOHEXYL” (CHIA TAI TIANQING PHARMACEUTICAL GROUP CO., LTD., priority 2022, published 2026)

Experiments:
Assay type in all cases: cell-based
LNCaP cells = test: Assay on inhibitory activity for LNCaP cell proliferation (CCK-8); conditions: 168 h incubation
Description: (§1) LNCaP cells in a good growth state were taken, washed with PBS, digested with pancreatin, and added with 2% CSS—FBS phenol red-free 1640 complete medium to terminate the digestion. The cells were collected by using a centrifuge tube, adjusted to a cell density of 1×10^5 cells/mL, and seeded in a 96-well plate (100 μL/well). Meanwhile, compounds were added using a nanoliter pipettor such that the final concentrations of the compounds were 10000 nM-0.61 nM. Two duplicate wells were set for each concentration, and meanwhile, a control was set. After another 168 h of incubation in the cell incubator, the detection reagent CCK-8 (manufacturer: Dojindo, 10 μL/well) was added.

AR in LNCaP cells = biological target: T1, AR in LNCaP cells (Homo sapiens, UniProt P10275, T878A); test: Assay on degradation activity for AR in LNCaP cells (HTRF human androgen receptor detection kit); conditions: 24 h incubation; for DC50: HTRF; for Dmax: maximum degradation rate
T1 construct: Assay on Degradation Activity for AR in LNCaP Cells; endogenous in cells; host or cells: LNCaP cells
T1 sequence (P10275 1-920 T878A): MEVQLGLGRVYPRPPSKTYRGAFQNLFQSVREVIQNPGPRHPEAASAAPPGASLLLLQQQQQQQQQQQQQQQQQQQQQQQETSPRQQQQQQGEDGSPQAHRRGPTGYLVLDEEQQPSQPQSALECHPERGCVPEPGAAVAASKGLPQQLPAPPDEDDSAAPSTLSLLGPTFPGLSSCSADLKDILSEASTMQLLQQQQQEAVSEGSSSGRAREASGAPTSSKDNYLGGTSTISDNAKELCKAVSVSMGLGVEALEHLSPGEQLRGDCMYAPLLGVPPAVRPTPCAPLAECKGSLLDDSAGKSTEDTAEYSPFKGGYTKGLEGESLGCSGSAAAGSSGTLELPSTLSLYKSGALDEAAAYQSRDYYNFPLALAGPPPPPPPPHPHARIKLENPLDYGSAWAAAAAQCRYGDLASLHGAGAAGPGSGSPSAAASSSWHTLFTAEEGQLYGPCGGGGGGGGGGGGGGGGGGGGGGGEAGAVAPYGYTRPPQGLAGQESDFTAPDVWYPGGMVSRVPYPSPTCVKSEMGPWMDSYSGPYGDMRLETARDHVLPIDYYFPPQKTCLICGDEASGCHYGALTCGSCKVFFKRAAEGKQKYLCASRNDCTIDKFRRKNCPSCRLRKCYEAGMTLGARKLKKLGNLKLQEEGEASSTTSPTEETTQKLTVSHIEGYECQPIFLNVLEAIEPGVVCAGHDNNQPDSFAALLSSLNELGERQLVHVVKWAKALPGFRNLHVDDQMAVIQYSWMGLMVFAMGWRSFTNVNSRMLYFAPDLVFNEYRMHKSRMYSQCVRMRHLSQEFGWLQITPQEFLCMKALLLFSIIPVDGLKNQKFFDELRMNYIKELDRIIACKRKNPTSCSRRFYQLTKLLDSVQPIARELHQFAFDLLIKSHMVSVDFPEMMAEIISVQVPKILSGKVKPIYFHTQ
Description: The detection was carried out using the HTRF HUMAN ANDROGEN RECEPTOR DETECTION KIT (cisbio, 64ANDRPEG), 4× Supplemented Lysis buffer was prepared using the Blocking reagent stock solution (100×) and Lysis buffer stock solution (4×), and 1× Supplemented Lysis buffer was prepared using the 4× Supplemented Lysis buffer and ddH2O. Premixed antibody solutions were prepared using Detection buffer, Androgen Receptor Eu Cryptate antibody, and Androgen Receptor d2 antibody.
LNCaP cells in a good growth state were taken, washed with PBS, digested with pancreatin, and added with 2% CSS—FBS phenol red-free 1640 complete medium to terminate the digestion. The cells were collected by using a centrifuge tube, adjusted to a cell density of 1×10^6 cells/mL, and seeded in a 96-well plate (100 μL/well). The cells were incubated overnight in a cell incubator. Compounds were added using a nanoliter pipettor such that the final concentrations of the compounds were 500 nM-0.488 nM. Two duplicate wells were set for each concentration, and meanwhile, a control was set. After another 24 h of incubation in the cell incubator, the medium was pipetted out, the 1× Supplemented Lysis buffer was added at 40 μL/well to lyse the cells. After the cells were oscillated for 40 min at room temperature, 16 μL of the cell lysate was added to a 384-well plate, the Premixed antibody solutions were added at 4 μL/well, and the mixture was left to stand at 25° C. for 2 h. Fluorescence values were detected at 665 nm/620 nm using an Envision microplate reader, the four-parameter analysis was performed, the dose-response curves were fit, and DC50 (the concentration of the drug when the degradation rate reaches 50%) and Dmax (the maximum degradation rate) were calculated.

VCaP cells = test: Assay on inhibitory activity for VCaP cell proliferation (CCK-8); conditions: 168 h incubation
Description: as §1, with “2.1 Assay on inhibitory activity for VCaP cell proliferation VCaP” for “LNCaP”, “5%” for “2%”, “DMEM” for “1640”

N#Cc1ccc(O[C@H]2CC[C@H](NC(=O)c3ccc(N4CCC(CN5CCc6ccc7c(C8CCC(=O)NC8=O)noc7c6CC5)CC4)nn3)CC2)cc1Cl (stereo partly drawn) [Compound 20]
IC50 (LNCaP cells; Homo sapiens): < 1000 nM
DC50 (AR in LNCaP cells): ≤ 20 nM
Dmax (AR in LNCaP cells): > 80%

N#Cc1ccc(O[C@H]2CC[C@H](NC(=O)c3ccc(N4CCN(CC5Cc6ccc7c(C8CCC(=O)NC8=O)coc7c6C5)CC4)nn3)CC2)cc1Cl (stereo partly drawn) [Compound 28]
IC50 (LNCaP cells; Homo sapiens): < 1000 nM
IC50 (VCaP cells; Homo sapiens, VCaP, 168 h): < 100 nM

N#Cc1ccc(O[C@H]2CC[C@H](NC(=O)c3ccc(N4CCC5(CC4)CC(CN4CCc6ccc7c(C8CCC(=O)NC8=O)noc7c6C4)C5)nn3)CC2)cc1Cl (stereo partly drawn) [Compound 35]
IC50 (LNCaP cells; Homo sapiens): < 1000 nM
IC50 (VCaP cells; Homo sapiens): < 100 nM
DC50 (AR in LNCaP cells): ≤ 20 nM
Dmax (AR in LNCaP cells): > 80%

N#Cc1ccc(O[C@H]2CC[C@H](NC(=O)c3ccc(N4CCC(CN5CCC(n6ccc7c8c(C9CCC(=O)NC9=O)noc8ccc76)CC5)CC4)nn3)CC2)cc1Cl (stereo partly drawn) [Compound 41]
IC50 (LNCaP cells; Homo sapiens): < 1000 nM
IC50 (VCaP cells; Homo sapiens, VCaP, 168 h): < 10 nM

N#Cc1ccc(O[C@H]2CC[C@H](NC(=O)c3ccc(C4CCN(C5CC(n6ncc7c8c(C9CCC(=O)NC9=O)noc8ccc76)C5)CC4)nn3)CC2)cc1Cl (stereo partly drawn) [Compound 46]
IC50 (LNCaP cells; Homo sapiens): < 1000 nM
IC50 (VCaP cells; Homo sapiens, VCaP, 168 h): < 10 nM

N#Cc1ccc(O[C@H]2CC[C@H](NC(=O)c3ccc(N4CCC(N5CC(CN6CCc7ccc8c(C9CCC(=O)NC9=O)noc8c7CC6)C5)CC4)nn3)CC2)cc1Cl (stereo partly drawn) [Compound 93]
IC50 (LNCaP cells; Homo sapiens): < 1000 nM
IC50 (VCaP cells; Homo sapiens, VCaP, 168 h): < 10 nM

N#Cc1ccc(O[C@H]2CC[C@H](NC(=O)c3ccc(N4CCC(N5CC(CN6CCc7ccc8c(C9CCC(=O)NC9=O)coc8c7CC6)C5)CC4)nn3)CC2)cc1Cl (stereo partly drawn) [Compound 99]
IC50 (LNCaP cells; Homo sapiens): < 1000 nM
IC50 (VCaP cells; Homo sapiens, VCaP, 168 h): < 100 nM

N#Cc1ccc(O[C@H]2CC[C@H](NC(=O)c3cnc(C4CCN(C5CN(CC6Cc7ccc8c(C9CCC(=O)NC9=O)coc8c7C6)C5)CC4)nc3)CC2)cc1Cl (stereo partly drawn) [Compound 111]
IC50 (LNCaP cells; Homo sapiens): < 1000 nM
IC50 (VCaP cells): < 100 nM

N#Cc1ccc(O[C@H]2CC[C@H](NC(=O)c3cnc(C4CCN(C5CN(CC6Cc7ccc8c(C9CCC(=O)NC9=O)coc8c7C6)C5)CC4)nc3)CC2)cc1Cl (stereo partly drawn) [Compound 112]
IC50 (LNCaP cells): < 1000 nM
IC50 (VCaP cells): < 1000 nM

CN(c1ccc(C#N)c(Cl)c1)[C@H]1CC[C@H](NC(=O)c2cnc(N3CC(CN4CCc5c(ccc6c(C7CCC(=O)NC7=O)noc56)C4)C3)nc2)CC1 (stereo partly drawn) [Compound 114]
IC50 (LNCaP cells; Homo sapiens): < 1000 nM
IC50 (VCaP cells; Homo sapiens, VCaP, 168 h): < 100 nM

N#Cc1ccc(O[C@H]2CC[C@H](NC(=O)c3cnc(N4CCC(CN5CCc6ccc7c(C8CCC(=O)NC8=O)noc7c6C5)CC4)nc3)CC2)cc1Cl (stereo partly drawn) [Compound 120]
IC50 (LNCaP cells; Homo sapiens): < 1000 nM
IC50 (VCaP cells; Homo sapiens, VCaP, 168 h): < 1000 nM

N#Cc1ccc(O[C@H]2CC[C@H](NC(=O)c3cnc(N4CCC(CN5CCc6c(ccc7c(C8CCC(=O)NC8=O)noc67)C5)CC4)nc3)CC2)cc1Cl (stereo partly drawn) [Compound 121]
IC50 (LNCaP cells; Homo sapiens): < 1000 nM
IC50 (VCaP cells; Homo sapiens, VCaP, 168 h): < 10 nM

N#Cc1ccc(O[C@H]2CC[C@H](NC(=O)c3cnc(N4CCC(CN5CCc6ccc7c(C8CCC(=O)NC8=O)noc7c6CC5)CC4)nc3)CC2)cc1Cl (stereo partly drawn) [Compound 122]
IC50 (LNCaP cells; Homo sapiens): < 1000 nM
IC50 (VCaP cells; Homo sapiens, VCaP, 168 h): < 100 nM
DC50 (AR in LNCaP cells): ≤ 20 nM
Dmax (AR in LNCaP cells): > 80%

N#Cc1ccc(O[C@H]2CC[C@H](NC(=O)c3cnc(N4CCN(CC5Cc6ccc7c(C8CCC(=O)NC8=O)noc7c6C5)CC4)nc3)CC2)cc1Cl (stereo partly drawn) [Compound 123]
IC50 (LNCaP cells; Homo sapiens): < 1000 nM
IC50 (VCaP cells; Homo sapiens, VCaP, 168 h): < 1000 nM

N#Cc1ccc(O[C@H]2CC[C@H](NC(=O)c3cnc(N4CCC5(CC4)CC(CN4Cc6ccc7c(C8CCC(=O)NC8=O)noc7c6C4)C5)nc3)CC2)cc1Cl (stereo partly drawn) [Compound 128]
IC50 (LNCaP cells; Homo sapiens): < 1000 nM
IC50 (VCaP cells; Homo sapiens, VCaP, 168 h): < 100 nM

N#Cc1ccc(O[C@H]2CC[C@H](NC(=O)c3cnc(N4CCC5(CC4)CC(CN4CCc6ccc7c(C8CCC(=O)NC8=O)noc7c6C4)C5)nc3)CC2)cc1Cl (stereo partly drawn) [Compound 129]
IC50 (LNCaP cells; Homo sapiens): < 1000 nM
IC50 (VCaP cells; Homo sapiens, VCaP, 168 h): < 100 nM

N#Cc1ccc(O[C@H]2CC[C@H](NC(=O)c3cnc(N4CCC5(CC4)CC(CN4CCc6c(ccc7c(C8CCC(=O)NC8=O)noc67)C4)C5)nc3)CC2)cc1Cl (stereo partly drawn) [Compound 130]
IC50 (LNCaP cells; Homo sapiens): < 1000 nM
IC50 (VCaP cells; Homo sapiens, VCaP, 168 h): < 100 nM

N#Cc1ccc(O[C@H]2CC[C@H](NC(=O)c3cnc(N4CCC5(CC4)CC(CN4CCc6ccc7c(C8CCC(=O)NC8=O)noc7c6CC4)C5)nc3)CC2)cc1Cl (stereo partly drawn) [Compound 131]
IC50 (LNCaP cells; Homo sapiens): < 1000 nM
IC50 (VCaP cells; Homo sapiens, VCaP, 168 h): < 100 nM

N#Cc1ccc(O[C@H]2CC[C@H](NC(=O)c3cnc(N4CCC(CN5Cc6ccc7c(C8CCC(=O)NC8=O)coc7c6C5)CC4)nc3)CC2)cc1Cl (stereo partly drawn) [Compound 132]
IC50 (LNCaP cells; Homo sapiens): < 1000 nM
IC50 (VCaP cells; Homo sapiens, VCaP, 168 h): < 1000 nM

N#Cc1ccc(O[C@H]2CC[C@H](NC(=O)c3cnc(N4CCC(CN5CCc6ccc7c(C8CCC(=O)NC8=O)coc7c6C5)CC4)nc3)CC2)cc1Cl (stereo partly drawn) [Compound 133]
IC50 (LNCaP cells; Homo sapiens): < 1000 nM
IC50 (VCaP cells; Homo sapiens, VCaP, 168 h): < 1000 nM

N#Cc1ccc(O[C@H]2CC[C@H](NC(=O)c3cnc(N4CCC(CN5CCc6c(ccc7c(C8CCC(=O)NC8=O)coc67)C5)CC4)nc3)CC2)cc1Cl (stereo partly drawn) [Compound 134]
IC50 (LNCaP cells; Homo sapiens): < 1000 nM
IC50 (VCaP cells; Homo sapiens, VCaP, 168 h): < 100 nM

N#Cc1ccc(O[C@H]2CC[C@H](NC(=O)c3cnc(N4CCN(CC5Cc6ccc7c(C8CCC(=O)NC8=O)coc7c6C5)CC4)nc3)CC2)cc1Cl (stereo partly drawn) [Compound 136]
IC50 (LNCaP cells; Homo sapiens): < 1000 nM
IC50 (VCaP cells; Homo sapiens, VCaP, 168 h): < 1000 nM

N#Cc1ccc(O[C@H]2CC[C@H](NC(=O)c3cnc(N4CCN(CC5Cc6ccc7c(C8CCC(=O)NC8=O)coc7c6C5)CC4)nc3)CC2)cc1Cl (stereo partly drawn) [Compound 137]
IC50 (LNCaP cells): < 1000 nM
IC50 (VCaP cells): < 1000 nM

N#Cc1ccc(O[C@H]2CC[C@H](NC(=O)c3cnc(N4CCC(CN5CCc6ccc7c(N8CCC(=O)NC8=O)coc7c6C5)CC4)nc3)CC2)cc1Cl [Compound 139]
IC50 (LNCaP cells; Homo sapiens): < 1000 nM
IC50 (VCaP cells; Homo sapiens, VCaP, 168 h): < 1000 nM

N#Cc1ccc(O[C@H]2CC[C@H](NC(=O)c3cnc(N4CC(CN5CCc6c(ccc7c(C8CCC(=O)NC8=O)noc67)C5)C4)nc3)CC2)cc1Cl (stereo partly drawn) [Compound 142]
IC50 (LNCaP cells; Homo sapiens): < 1000 nM
IC50 (VCaP cells; Homo sapiens, VCaP, 168 h): < 1000 nM

N#Cc1ccc(O[C@H]2CC[C@H](NC(=O)c3ncc(N4CCC(CN5CCc6c(ccc7c(C8CCC(=O)NC8=O)noc67)C5)CC4)cn3)CC2)cc1Cl (stereo partly drawn) [Compound 146]
IC50 (LNCaP cells; Homo sapiens): < 1000 nM
IC50 (VCaP cells; Homo sapiens, VCaP, 168 h): < 1000 nM
